In the NIST ThermoML archive (doi:10.1021/je500381c):

Test: xn = mol fraction of the nth substance listed
Conditions: 100 kPa, Liquid; for mass density: Vibrating tube method

CC12CC3CC(C)(C1)CC(C)(C3)C2 [1,3,5-trimethyladamantane] + CCCCCCCO
Conditions	mass density, 313.15 K [kg/m3]	mass density, 318.15 K [kg/m3]	mass density, 323.15 K [kg/m3]	mass density, 328.15 K [kg/m3]	mass density, 333.15 K [kg/m3]	viscosity, 313.15 K [mPa·s]	viscosity, 318.15 K [mPa·s]	viscosity, 323.15 K [mPa·s]	viscosity, 328.15 K [mPa·s]	viscosity, 333.15 K [mPa·s]
x2 = 0	–	869.86	866.31	862.76	859.2	1.765	1.621	1.494	1.384	1.284
x2 = 0.1001	–	864.47	860.82	857.16	853.48	1.737	1.585	1.452	1.335	1.232
x2 = 0.2001	–	859.34	855.66	851.96	848.24	1.802	1.636	1.494	1.368	1.257
x2 = 0.3002	–	853.95	850.25	846.53	842.78	1.899	1.719	1.561	1.424	1.303
x2 = 0.4004	–	848.3	844.59	840.86	837.09	2.027	1.826	1.652	1.5	1.367
x2 = 0.5001	846.01	842.32	838.61	834.86	831.09	2.178	1.952	1.756	1.587	1.44
x2 = 0.6002	839.62	835.93	832.21	828.46	824.68	2.387	2.124	1.899	1.707	1.54
x2 = 0.7001	832.76	829.07	825.35	821.6	817.82	2.648	2.338	2.049	1.855	1.663
x2 = 0.7999	825.37	821.7	817.99	814.26	810.48	2.957	2.593	2.287	2.029	1.808
x2 = 0.9002	817.19	813.54	809.87	806.15	802.4	3.327	2.899	2.541	2.239	1.984
